Patent publication US20230241017A1, “Hydrophilic Degradable Microsphere for Delivering Travoprost” (Occlugel, priority 2020, published 2023)
Marks after values point to notes of the source that are not given here.

Assays:
[1] = Extemporaneous loading of latanoprost and latanoprostene BUNOD on sterile MS5; type: physicochemical; conditions: for Drug loading on MS5: extemporaneous loading on freeze-dried e-beam sterilized MS5, 5 min room temperature; for loading efficiencies (%) on MS5: extemporaneous loading on sterile MS5, 5 min room temperature
Protocol: After the sieving step of MS5, 100 μL or 250 μL of pellets were suspended in 5 mL of a solution containing 2.5% (w/v) of mannitol. After homogenization, the pellets of microspheres were recovered, frozen-dried and sterilized by e-beam radiation (25 kilograys).
Latanoprost Loading To the dry and sterile pellets of microspheres (250 μL), 500 μL of latanoprost solution (TRC-L177280-10MG) at 2 mg/mL in acetonitrile/water mixture (70/30) were added. After 5 min of mixing at room temperature under stirring on a tube rotator (=30 rpm), the supernatants were removed for the measurement of unbound latanoprost by RP-HPLC at 210 nm on a C18 column (46×150 mm) using a mobile phase made of acetonitrile/water containing 0.1% TFA (60:40, v/v) at a flow rate of 1 mL/min in the isocratic mode at 25° C. The amount of latanoprost in supernatants was obtained by extrapolation from a standard curve (0.5 to 20 μg/mL). The loaded dose was calculated by subtracting the final amount of latanoprost from the initial amount. The latanoprost loading for 1 mL of beads was obtained by multiplying by 4 the quantity loaded on 250 μL of MS.
Latanoprostene BUNOD is a nitric oxide (NO)-donating prostaglandin F2a analogue approved for the reduction of intraocular pressure in patients with open-angle glaucoma or ocular hypertension. To the dry and sterile pellets of microspheres (100 μL), 700 μL of latanoprotene BUNOD (TRC-L177335-2.5MG) solution at 1 mg/mL in acetonitrile/water mixture (70/30%) were added. After 5 min of mixing at room temperature under stirring on a tube rotator (=30 rpm), the supernatants were removed for the measurement of unbound drug by RP-HPLC at 210 nm on a C18 column (46×150 mm) using a mobile phase made of acetonitrile/water containing 0.1% TFA (60:40, v/v) at a flow rate of 1 mL/min in the isocratic mode at 25° C. The amount of latanoprotene BUNOD in supernatants was obtained by extrapolation from a standard curve (0.25 to 25 μg/mL). The loaded dose was calculated by subtracting the final amount of latanoprotene BUNOD from the initial amount. The latanoprotene BUNOD loading for 1 mL of beads was obtained by multiplying by 10 the quantity loaded on 100 μL of MS.

[2] = pubchem.ncbi.nlm.nih.gov; cited from earlier work
[3] = In vitro release of latanoprost and latanoprostene BUNOD in PBS after extemporaneous loading on MS5; type: physicochemical; conditions: for elution after 5 weeks of incubation: loaded on MS5, PBS 37 °C (FIG. 9); for % of prostaglandin analogues release after 10 min in PBS / % of prostaglandin analogues release after 1 day in PBS / % of prostaglandin analogues release after 7 days in PBS / % of prostaglandin analogues release after 18 days in PBS: loaded on sterile MS5, PBS pH 7.4, 37 °C
Protocol: Then, immediately after the loading step, 50 mL of PBS (Sigma P-5368; 10 mM phosphate buffered saline; NaCl 0,136 M; KCl 0,0027 M; pH 7.4) was added to the microspheres loaded with latanoprost or latanoprostene BUNOD for the in vitro drug release (37° C., 150 rpm). The medium was completely renewed after each sample collection (10 min, 2 h, 24 h and every 3-4 days during 5 weeks). The amounts of prostaglandin analogues in PBS supernatants were determined by RP-HPLC at 210 nm for latanoprost and latanoprostene BUNOD on a C18 column (46×150 mm) using a mobile phase made of acetonitrile/water containing 0.1% TFA (60:40, v/v) at a flow rate of 1 mL/min in the isocratic mode at 25° C. The results are summarized in Table 7 and in FIG. 9 for each drug.

[4] = In vitro release of travoprost in PBS after extemporaneous loading; type: physicochemical; conditions: from MS5 after extemporaneous loading; PBS 37 °C (FIG. 7)
Protocol: Then, PBS (50 mL) was added to the microspheres loaded with travoprost for the in vitro drug release experiment (37° C., 150 rpm). The medium was completely renewed after each sample collection. The amounts of travoprost in PBS supernatants were determined by RP-HPLC at 222 nm on a C18 column (46×150 mm) using a mobile phase made of acetonitrile/water containing 0.1% TFA (60:40, v/v) at a flow rate of 1 mL/min in the isocratic mode at 25° C.

O=C(CCC/C=C\C[C@@H]1[C@@H](CC[C@@H](O)CCc2ccccc2)[C@H](O)C[C@@H]1O)OCCCCO[N+](=O)[O-] [Latanoprostene BUNOD]
Drug loading on MS5 [1]: 6.58 ± 0.1 mg/mL | amount of drug loaded on the degradable microsphere MS5 ([1]; extemporaneous loading on sterile MS5): at least 6.5 mg | loading efficiencies (%) on MS5 [1]: (94%) | Partition coefficient P (Log P) of the prostaglandin analogues [2]: 3.79-3.94 | elution after 5 weeks of incubation [3]: practically complete | % of prostaglandin analogues release after 10 min in PBS [3]: 7.04 ± 2.2% | % of prostaglandin analogues release after 1 day in PBS [3]: 32.4 ± 4.1% | % of prostaglandin analogues release after 7 days in PBS [3]: 45.2 ± 4.5% | % of prostaglandin analogues release after 18 days in PBS [3]: 60 ± 6.2%

CC(C)OC(=O)CCC/C=C\C[C@@H]1[C@@H](/C=C/[C@@H](O)COc2cccc(C(F)(F)F)c2)[C@H](O)C[C@@H]1O [travoprost]
duration of sustained travoprost release [4]: at least two months | initial burst release of travoprost [4]: 3.5%

CC(C)OC(=O)CCC/C=C\C[C@@H]1[C@@H](CC[C@@H](O)CCc2ccccc2)[C@H](O)C[C@@H]1O [Latanoprost]
Drug loading on MS5 [1]: 3.83 ± 0.07 mg/mL | loading efficiencies (%) on MS5 [1]: (98%)** | elution after 5 weeks of incubation [3]: practically complete | % of prostaglandin analogues release after 10 min in PBS [3]: 8.7 ± 0.5% | % of prostaglandin analogues release after 1 day in PBS [3]: 42.3 ± 10% | % of prostaglandin analogues release after 7 days in PBS [3]: 59.7 ± 11.1% | % of prostaglandin analogues release after 18 days in PBS [3]: 77.5 ± 11.9%
